Source: PMC9610897, “Cationic Perylene Antivirals with Aqueous Solubility for Studies In Vivo” (Pharmaceuticals, 2022)
Values after ≈ are worked out from the molar mass of the structure shown. Read-outs that look alike come from different tables or passages of the source.

Tests used:
CHIKV = CHIKV cytopathic effect (CPE) inhibition test; assay type: cell-based, Chikungunya virus (CHIKV, strain Nic); settings: for EC50: Chikungunya virus, 120 h, read-out: Antiviral Activity, EC50 ± SD, CHIKV; for Activity against CHIKV (in words): concentrations studied up to 100 μM
SARS-CoV-2 = SARS-CoV-2 cytopathic effect (CPE) inhibition test; assay type: cell-based, strain PIK35; settings: for EC50: Severe acute respiratory syndrome coronavirus 2, 120 h, CPE inhibition in Vero cells, 5 days, M ± SD, read-out: Antiviral Activity, EC50 ± SD, SARS-CoV-2; for Activity against SARS-CoV-2 (in words): concentrations studied up to 100 μM
Source text: (§1) The green monkey kidney (Vero) cell line originated from WHO Biologicals, Switzerland (10–87), and the Madin-Darby canine kidney (MDCK) cell line was obtained from the American Type Culture Collection (ATCC CCL-34).
(§2) Viruses and strains used in the present work were severe acute respiratory syndrome-related coronavirus 2 (SARS-CoV-2, strain PIK35, GISAID EPI_ISL_428852), Chikungunya virus (CHIKV, strain Nic, GenBank IDs MN271691-2) and influenza A virus (H1N1, strain A/PR/8/34, ATCC VR-95).
The procedure was described previously. In brief, two-fold dilutions of the compounds were prepared in Dulbecco MEM (Chumakov FSC R&D IBP RAS, Russia) and mixed 1:1 with a virus suspension containing 50–200 TCID50 and incubated for 1 h at 37 °C in a CO2 incubator. The final concentration series started from 100 μM. Then, compound-virus mixtures were added to confluent Vero cell monolayers in 2 replicates. After incubation at 37 °C in a CO2-incubator for 5 days, CPE signs (cell death) were assessed via microscope, and 50% effective concentration (EC50) (compound concentration required to decrease CPE by 50%) was calculated using the Karber method.

IAV = IAV virus yield reduction assay; assay type: cell-based, influenza A virus (H1N1, strain A/PR/8/34); settings: Influenza A virus; virus yield reduction in MDCK cells, MOI 1, 24 h, M ± SD; read-out: Antiviral Activity, EC50 ± SD, IAV
Source text: as §1, §2
Compound solutions were prepared in DMSO (20 mg/mL). The compounds were weighed in 2 mg amounts and dissolved in 100 μL of DMSO. Then, a series of 3-fold dilutions was prepared, starting from 300 µg/mL, in a cultural medium. The MDCK cell monolayer was treated with compound dilutions and incubated for 1 h in a CO2 incubator at 37 °C. Untreated cells were used as negative control. Afterward, the virus was added (MOI 1), and cells were incubated for 24 h at 37 °C in a CO2 incubator. After incubation, the culture medium was collected, and viral yields were determined by titration. In brief, a series of 10-fold dilutions (10^−7–10^−1) of viral supernatants were prepared in a cultural medium and applied to daily MDCK cell monolayers. Infected cells were incubated for 72 h at 37 °C in a CO2 incubator. The presence of the virus in the culture supernatants was determined using the hemagglutination assay with a 1% suspension of chicken erythrocytes. Viral titer was calculated according to the Reed-and-Muench method and was expressed as 50% tissue infectious doses (TID50) per 100 μL of volume. Inhibition (%) was calculated by comparison with non-treated cells, and EC50 was calculated from inhibitory curves.

[1] = Cell viability assay in Vero cells (resazurin); assay type: cell-based; settings: green monkey, 5 d, read-out: Cytotoxicity, CC50 ± SD, Vero
Description: as §1
Two-fold dilutions of the compounds (starting from 100 μM) were prepared in DMEM (Chumakov FSC R&D IBP RAS, Russia) and added to confluent cell monolayers. After 5 days of incubation (37 °C, 5% CO2), the cultural supernatant was substituted with a resazurin solution (25 μg/mL), followed by 4 h incubation (37 °C, 5% CO2). Then, 20 µL of 10% SDS were added to stop the reaction. Fluorescence intensity was measured with Promega GloMax-Multi Detection System (Ex525/Em580–640). Cells treated with dilutions of the compounds and DMSO, but not resazurin, were used to subtract the background fluorescence. All experimental procedures were performed in two replicates. Fluorescence curves were analyzed with Microsoft Excel 2013. 50% Cytotoxic concentrations (CC50) were calculated.

[2] = Cell viability assay in MDCK cells (MTT); assay type: cell-based, canine; settings: dog, read-out: Cytotoxicity, CC50 ± SD, MDCK
Description: as §1
Compound solutions were prepared in DMSO (20 mg/mL), and then 2-fold dilutions in cultural medium were prepared starting from 1000 μg/mL. One-day MDCK cell monolayers (over 95% confluency) in 96-well plates ([…]) were washed twice with serum-free alpha-MEM (Thermo-Fisher Scientific, USA) and treated with 100 μL of compound dilutions in 2 replicates. The plates were then incubated for 24 h at 37 °C in a CO2 incubator. Cell viability was assessed using the tetrazolium test (MTT, ApplyChem). Optical density was measured on a Wallac 1420 Victor2 microplate reader (Perkin Elmer, Ramsey, MN, USA) at 535 nm, then CC50 values were calculated.

[3] = Solubility in water (photometry); assay type: physicochemical; settings: for solubility at 30 min: thermodynamic from solid
Description: The samples were dissolved in DMSO, diluted in series, and photometrically analyzed. The average molar absorption coefficient was calculated from the obtained optical densities of calibration solutions at the absorption maxima. Solubility values were determined as previously described by adding weighed amounts of compounds to distilled water followed by sonication (30 min), centrifugation (12,000 rpm, 10 min), and photometry.

[4] = system: influenza A/California/7/09/MA virus; assay type: in vivo, BALB/c mice
[5] = distilled water, sonication, centrifugation, photometry

Row | Compound | EC50 (CHIKV; Vero) [µM] | Activity against CHIKV (in words) (CHIKV) | EC50 (SARS-CoV-2) [µM] | Activity against SARS-CoV-2 (in words) (SARS-CoV-2) | EC50 (IAV) [µM] | CC50 at 5 days [1] [µM] | CC50 at 24 h [2] [µM] | solubility at 30 min [3, 5] [mM] | Average Life Expectancy (M ± SEM) ([4]; 20 mg/kg intragastric, BALB/c mice) [days] | Protective Index (PI) ([4]; 20 mg/kg intragastric, […]) [%] | Mortality Rate ([4]; mouse, in vivo) [%] | Reduction in body weight (maximum) ([4]; mouse, in vivo) [%] | Solubility in water (in words) [3] | Solubility in Water [3, 5] | EC50 (CHIKV; CPE inhibition in Vero cells, 5 days, M ± SD) [µM]
1 | c1cc2cccc3c4ccc(-c5cn(CCCN6CCOCC6)nn5)c5cccc(c(c1)c23)c54 [Compound 2b, 4-(3-(4-(Perylen-3-yl)-1H-1,2,3-triazol-1-yl)propyl)morpholine] | > 100 | did not demonstrate any activity | > 100 | did not demonstrate any activity | 62 ± 22 | > 100 | > 100 | – | – | – | – | – | – | – | –
2 | C[N+]1(CCn2cc(-c3ccc4c5cccc6cccc(c7cccc3c74)c65)nn2)CCOCC1.[I-] [Compound 3a, 4-Methyl-4-(2-(4-(perylen-3-yl)-1H-1,2,3-triazol-1-yl)ethyl)morpholin-4-ium iodide] | 11.3 ± 9 | – | 1.88 ± 0.88 | – | 49 ± 19 | > 100 | > 100 | 3.4 | – | – | – | – | – | – | –
3 | CC(C)[C@H](NC(=O)OC(C)(C)C)C(=O)O[C@@H]1[C@H](O)[C@@H](CO)O[C@H]1n1cc(C#Cc2ccc3c4cccc5cccc(c6cccc2c63)c54)c(=O)[nH]c1=O [Compound 7, 2′-O-(N-Boc-L-valinyl)-5-(perylen-3-ylethynyl)uridine] | < 0.016 | – | 0.075 ± 0.018 | – | 4.6 ± 1 | 98 ± 17 | 62 ± 24 | – | – | – | – | – | – | – | –
4 | CCOC(=O)C1=C[C@@H](OC(CC)CC)[C@H](NC(C)=O)[C@@H](N)C1 [Tamiflu, Oseltamivir phosphate, reference compound] | – | – | – | – | 0.02 | – | > 100 | – | 11.4 ± 1.1 | 56 | 40 | 24.0 | – | – | –
5 | O=c1[nH]c(=O)n([C@@H]2O[C@H](CO)[C@@H](O)[C@@H]2O)cc1C#Cc1ccc2c3cccc4cccc(c5cccc1c52)c43 [aUY11, 5-(Perylen-3-yl)ethynyl-arabino-uridine, reference compound] | – | – | – | – | – | – | – | – | – | – | – | – | no solubility | insoluble | –
6 | c1cc2cccc3c4ccc(-c5cn(CCN6CCOCC6)nn5)c5cccc(c(c1)c23)c54 [Compound 2a, 4-(2-(4-(Perylen-3-yl)-1H-1,2,3-triazol-1-yl)ethyl)morpholine] | 0.47 ± 0.16 | – | 11.3 ± 1.8 | – | 20.6 ± 8 | > 100 | > 100 | – | – | – | – | – | – | – | –
7 | O=c1nc(NO)ccn1[C@@H]1O[C@H](CO)[C@@H](O)[C@H]1O [NHC, N^4-hydroxycytidine, reference compound] | – | – | 7.4 | – | – | > 100 | – | – | – | – | – | – | – | – | 9.7
8 | CC(C)[C@H](NC(=O)OC(C)(C)C)C(=O)O[C@@H]1[C@@H]2O[Si](C(C)C)(C(C)C)O[Si](C(C)C)(C(C)C)OC[C@H]2O[C@H]1n1cc(C#Cc2ccc3c4cccc5cccc(c6cccc2c63)c54)c(=O)[nH]c1=O [Compound 6, 2′-O-(N-Boc-L-valinyl)-3′,5′-O-(tetraisopropyldisiloxane-1,3-diyl)-5-(perylen-3-ylethynyl)uridine] | > 100 | did not demonstrate any activity | > 100 | did not demonstrate any activity | 31 ± 10 | > 100 | > 100 | – | – | – | – | – | – | – | –
9 | C[N+]1(CCCn2cc(-c3ccc4c5cccc6cccc(c7cccc3c74)c65)nn2)CCOCC1.[I-] [Compound 3b, 4-Methyl-4-(3-(4-(Perylen-3-yl)-1H-1,2,3-triazol-1-yl)propyl)morpholin-4-ium iodide] | 10.7 ± 2.6 | had activity | 9.2 ± 4.3 | had activity | > 100 | > 100 | > 100 | 5 | – | – | – | – | – | – | –
10 | CC(C)[Si]1(C(C)C)OC[C@H]2O[C@@H](n3cc(C#Cc4ccc5c6cccc7cccc(c8cccc4c85)c76)c(=O)[nH]c3=O)[C@H](O)[C@@H]2O[Si](C(C)C)(C(C)C)O1 [Compound 5, 3′,5′-O-(Tetraisopropyldisiloxan-1,3-diyl)-5-(perylen-3-ylethynyl)uridine] | 1.17 ± 0.55 | – | > 100 | did not demonstrate any activity | – | > 100 | – | – | – | – | – | – | – | – | –
11 | CC(C)[C@H](N)C(=O)O[C@@H]1[C@H](O)[C@@H](CO)O[C@H]1n1cc(C#Cc2ccc3c4cccc5cccc(c6cccc2c63)c54)c(=O)[nH]c1=O [Compound 8, 2′-O-L-Valinyl-5-(perylen-3-ylethynyl)uridine] | 0.55 ± 0.33 | – | 1.28 ± 0.4 | – | 3.8 ± 1.3 | > 100 | > 100 | 0.1 (≈ 61.8 µg/mL) | – | – | – | – | poor | – | –
